From paper PMC4982440, “PDK1-SGK1 Signaling Sustains AKT-Independent mTORC1 Activation and Confers Resistance to PI3Kα Inhibition” (Cancer Cell, 2016)

Experiments:
Type in all cases: biochemical
[1] = biological target: T1, SGK3 (Homo sapiens, UniProt Q96BR1); assay: in vitro kinase assay
T1 sequence (Q96BR1 1-496): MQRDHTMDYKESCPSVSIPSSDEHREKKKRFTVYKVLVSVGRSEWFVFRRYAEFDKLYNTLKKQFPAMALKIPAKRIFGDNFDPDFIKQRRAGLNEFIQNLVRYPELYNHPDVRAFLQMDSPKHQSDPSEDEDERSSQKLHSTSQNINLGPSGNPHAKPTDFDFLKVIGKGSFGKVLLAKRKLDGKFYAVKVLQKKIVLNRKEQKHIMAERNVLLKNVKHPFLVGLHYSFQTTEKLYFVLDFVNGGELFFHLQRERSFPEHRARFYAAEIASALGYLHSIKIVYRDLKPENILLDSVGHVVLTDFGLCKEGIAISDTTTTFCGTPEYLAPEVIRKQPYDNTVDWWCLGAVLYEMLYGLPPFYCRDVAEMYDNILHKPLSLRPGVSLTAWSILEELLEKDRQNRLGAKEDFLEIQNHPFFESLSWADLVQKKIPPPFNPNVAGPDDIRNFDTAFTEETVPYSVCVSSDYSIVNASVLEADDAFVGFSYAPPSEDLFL

[2] = biological target: T2, SGK2 (Homo sapiens, UniProt Q9HBY8); assay: in vitro kinase assay
T2 sequence (Q9HBY8 1-367): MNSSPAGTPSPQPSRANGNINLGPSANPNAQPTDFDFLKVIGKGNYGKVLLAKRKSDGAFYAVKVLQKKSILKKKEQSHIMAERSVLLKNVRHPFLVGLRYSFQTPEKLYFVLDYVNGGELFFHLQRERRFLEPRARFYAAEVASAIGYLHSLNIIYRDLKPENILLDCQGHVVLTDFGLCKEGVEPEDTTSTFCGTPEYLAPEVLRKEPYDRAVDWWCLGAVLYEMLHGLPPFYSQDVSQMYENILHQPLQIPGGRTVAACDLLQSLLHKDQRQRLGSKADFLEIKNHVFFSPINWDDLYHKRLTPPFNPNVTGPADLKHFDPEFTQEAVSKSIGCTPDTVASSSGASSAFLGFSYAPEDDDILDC

[3] = biological target: T3, S6K (Homo sapiens, UniProt P23443); assay: recombinant in vitro kinase assay
T3 construct: gene RPS6KB1; recombinant S6K
T3 sequence (P23443 whole entry): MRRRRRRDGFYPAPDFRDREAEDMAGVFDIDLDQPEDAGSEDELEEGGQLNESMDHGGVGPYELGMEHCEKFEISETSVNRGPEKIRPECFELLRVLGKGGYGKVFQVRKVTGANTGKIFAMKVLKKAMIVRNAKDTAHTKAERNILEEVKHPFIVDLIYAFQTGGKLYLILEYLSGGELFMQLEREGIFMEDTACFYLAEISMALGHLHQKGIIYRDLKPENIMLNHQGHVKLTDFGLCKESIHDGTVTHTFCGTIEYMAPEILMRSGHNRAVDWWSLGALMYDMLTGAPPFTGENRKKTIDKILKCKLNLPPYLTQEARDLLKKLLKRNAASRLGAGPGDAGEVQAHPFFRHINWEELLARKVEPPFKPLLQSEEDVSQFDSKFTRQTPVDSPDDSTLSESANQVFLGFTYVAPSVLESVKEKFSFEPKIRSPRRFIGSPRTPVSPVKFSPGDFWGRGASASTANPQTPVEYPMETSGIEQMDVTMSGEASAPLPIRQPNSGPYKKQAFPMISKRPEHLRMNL

IC50 [1]: 590 nM
IC50 [2]: 2.8 nM
IC50 [3]: 33 nM
SMILES: Nc1n[nH]c2nc(-c3ccc(NS(=O)(=O)c4cccc(Cl)c4Cl)cc3)cnc12 [SGK1-inh]
